Each structure is given as a SMILES string.

Test [1] addresses Proto-oncogene tyrosine-protein kinase Src (Homo sapiens, UniProt P12931). The following applies: at 10 µM.
Test [2] concerns the target T1, Tyrosine-protein kinase JAK3 (Homo sapiens) (UniProt P52333).
T1 sequence (whole entry): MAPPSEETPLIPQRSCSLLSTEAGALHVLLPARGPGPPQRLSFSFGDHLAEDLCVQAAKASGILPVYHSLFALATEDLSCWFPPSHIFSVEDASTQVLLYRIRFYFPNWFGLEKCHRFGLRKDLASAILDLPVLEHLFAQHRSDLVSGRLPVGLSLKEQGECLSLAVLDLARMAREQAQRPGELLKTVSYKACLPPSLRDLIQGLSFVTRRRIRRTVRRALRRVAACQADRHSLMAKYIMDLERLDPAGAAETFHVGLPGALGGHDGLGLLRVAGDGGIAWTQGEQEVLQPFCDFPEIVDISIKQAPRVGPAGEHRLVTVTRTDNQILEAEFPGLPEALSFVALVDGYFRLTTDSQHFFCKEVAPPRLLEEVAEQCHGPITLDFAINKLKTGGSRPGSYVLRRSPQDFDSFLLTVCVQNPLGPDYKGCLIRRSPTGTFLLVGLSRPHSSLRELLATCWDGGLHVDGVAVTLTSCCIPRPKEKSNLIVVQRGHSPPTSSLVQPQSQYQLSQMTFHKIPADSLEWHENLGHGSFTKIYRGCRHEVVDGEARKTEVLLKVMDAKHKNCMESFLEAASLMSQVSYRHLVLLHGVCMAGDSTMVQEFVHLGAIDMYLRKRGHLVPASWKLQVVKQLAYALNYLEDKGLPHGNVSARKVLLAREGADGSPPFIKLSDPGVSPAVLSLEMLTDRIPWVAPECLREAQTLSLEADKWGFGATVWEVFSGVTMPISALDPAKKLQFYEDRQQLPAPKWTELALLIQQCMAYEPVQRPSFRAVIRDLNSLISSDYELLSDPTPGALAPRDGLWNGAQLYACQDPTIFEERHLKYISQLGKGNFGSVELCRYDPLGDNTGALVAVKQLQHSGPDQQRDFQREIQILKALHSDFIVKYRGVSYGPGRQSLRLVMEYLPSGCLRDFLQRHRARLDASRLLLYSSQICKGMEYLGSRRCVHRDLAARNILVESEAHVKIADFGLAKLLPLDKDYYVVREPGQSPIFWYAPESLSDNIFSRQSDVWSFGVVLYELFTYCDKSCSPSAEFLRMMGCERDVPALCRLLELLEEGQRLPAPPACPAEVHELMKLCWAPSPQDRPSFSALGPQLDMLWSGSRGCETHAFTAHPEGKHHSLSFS
Put plainly: Selectivity interaction (Ambit KINOMEscan and KiNATiv profiling in Jurkat cells) EUB0000090b JAK3. The class given is cell-based. The following applies: at 1 µM.

The target of test [3] is T2, TGF-beta receptor type-1 (Homo sapiens) (UniProt P36897).
T2 sequence (whole entry): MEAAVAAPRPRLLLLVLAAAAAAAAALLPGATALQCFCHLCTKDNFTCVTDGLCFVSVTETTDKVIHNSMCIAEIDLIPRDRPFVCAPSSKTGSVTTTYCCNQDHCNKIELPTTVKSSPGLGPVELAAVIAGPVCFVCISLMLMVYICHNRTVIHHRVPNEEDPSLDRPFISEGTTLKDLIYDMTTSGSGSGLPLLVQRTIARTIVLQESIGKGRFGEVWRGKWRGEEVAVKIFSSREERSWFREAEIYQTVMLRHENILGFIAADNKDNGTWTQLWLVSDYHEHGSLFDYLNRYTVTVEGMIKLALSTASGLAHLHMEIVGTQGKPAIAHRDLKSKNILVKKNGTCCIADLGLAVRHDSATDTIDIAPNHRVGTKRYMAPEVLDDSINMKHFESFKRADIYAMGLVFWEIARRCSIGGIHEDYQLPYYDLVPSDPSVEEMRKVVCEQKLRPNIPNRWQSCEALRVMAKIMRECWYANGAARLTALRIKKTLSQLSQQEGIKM
The note with it: at 10 µM.

The target in test [4] is Transient receptor potential cation channel subfamily M member 6 (Homo sapiens) (UniProt Q9BX84). Kind of test: Selectivity interaction (KinomeScan (DiscoverX)) EUB0000695a TRPM6. The following applies: at 100 nM.
Test [5] concerns the target T3, Mitogen-activated protein kinase kinase kinase 7 (Homo sapiens) (UniProt O43318).
T3 sequence (whole entry): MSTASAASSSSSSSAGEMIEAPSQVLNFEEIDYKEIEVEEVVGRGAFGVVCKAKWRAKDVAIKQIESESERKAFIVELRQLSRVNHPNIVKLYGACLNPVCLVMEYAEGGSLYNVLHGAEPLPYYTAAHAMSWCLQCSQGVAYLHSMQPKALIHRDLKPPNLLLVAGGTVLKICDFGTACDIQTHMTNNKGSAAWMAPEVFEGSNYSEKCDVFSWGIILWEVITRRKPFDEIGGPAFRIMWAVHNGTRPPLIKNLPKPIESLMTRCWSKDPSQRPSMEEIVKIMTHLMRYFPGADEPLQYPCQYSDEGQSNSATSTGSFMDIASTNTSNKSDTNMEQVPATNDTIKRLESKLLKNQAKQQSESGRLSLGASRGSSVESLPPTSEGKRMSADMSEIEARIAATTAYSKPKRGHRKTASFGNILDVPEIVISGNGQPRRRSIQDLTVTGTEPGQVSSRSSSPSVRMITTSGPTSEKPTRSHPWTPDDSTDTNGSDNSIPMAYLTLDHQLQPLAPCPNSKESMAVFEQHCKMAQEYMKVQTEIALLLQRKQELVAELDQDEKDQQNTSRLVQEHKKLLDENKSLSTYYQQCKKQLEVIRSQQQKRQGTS
Put plainly: Selectivity interaction (KinomeScan (DiscoverX)) EUB0000045b MAP3K7.

The next test deals with Focal adhesion kinase 1 (Homo sapiens, UniProt Q05397). Kind of test: Selectivity interaction (ActivX KiNativ screen (ex vivo kinase selectivity in human PBMCs)) EUB0001619a PTK2. The class given is cell-based. The note with it: PBMC, at 1 µM.
Focal adhesion kinase 1, sequence (Q05397 2-1052 limits assumed): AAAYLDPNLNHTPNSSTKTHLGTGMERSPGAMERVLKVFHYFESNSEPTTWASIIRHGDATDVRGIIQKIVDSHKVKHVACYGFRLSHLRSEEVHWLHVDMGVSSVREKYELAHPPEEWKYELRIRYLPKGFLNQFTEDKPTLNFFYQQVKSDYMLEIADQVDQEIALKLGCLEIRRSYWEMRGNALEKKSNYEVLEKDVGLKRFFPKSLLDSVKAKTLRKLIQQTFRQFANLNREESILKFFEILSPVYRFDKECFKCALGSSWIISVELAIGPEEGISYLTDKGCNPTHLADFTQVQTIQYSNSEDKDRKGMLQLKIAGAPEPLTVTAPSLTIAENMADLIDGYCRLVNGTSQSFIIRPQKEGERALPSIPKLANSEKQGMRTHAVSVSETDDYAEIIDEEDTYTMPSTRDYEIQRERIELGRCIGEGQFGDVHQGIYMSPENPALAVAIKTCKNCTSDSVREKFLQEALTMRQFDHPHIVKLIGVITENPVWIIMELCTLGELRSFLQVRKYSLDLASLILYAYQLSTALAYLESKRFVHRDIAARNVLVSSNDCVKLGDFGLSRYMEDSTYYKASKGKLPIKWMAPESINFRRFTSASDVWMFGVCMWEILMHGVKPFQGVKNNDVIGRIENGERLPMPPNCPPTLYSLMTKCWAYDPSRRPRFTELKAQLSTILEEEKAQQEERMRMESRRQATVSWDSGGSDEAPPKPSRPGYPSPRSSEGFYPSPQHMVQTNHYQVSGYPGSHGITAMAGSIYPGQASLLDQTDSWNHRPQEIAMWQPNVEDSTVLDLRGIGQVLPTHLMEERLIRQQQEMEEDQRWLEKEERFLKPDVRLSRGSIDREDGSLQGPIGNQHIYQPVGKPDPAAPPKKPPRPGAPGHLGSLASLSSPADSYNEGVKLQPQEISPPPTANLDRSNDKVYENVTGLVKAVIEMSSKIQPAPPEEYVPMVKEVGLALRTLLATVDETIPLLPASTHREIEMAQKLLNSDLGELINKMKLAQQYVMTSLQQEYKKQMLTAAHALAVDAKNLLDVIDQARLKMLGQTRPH

Proto-oncogene tyrosine-protein kinase Src, sequence (P12931 2-536 limits assumed): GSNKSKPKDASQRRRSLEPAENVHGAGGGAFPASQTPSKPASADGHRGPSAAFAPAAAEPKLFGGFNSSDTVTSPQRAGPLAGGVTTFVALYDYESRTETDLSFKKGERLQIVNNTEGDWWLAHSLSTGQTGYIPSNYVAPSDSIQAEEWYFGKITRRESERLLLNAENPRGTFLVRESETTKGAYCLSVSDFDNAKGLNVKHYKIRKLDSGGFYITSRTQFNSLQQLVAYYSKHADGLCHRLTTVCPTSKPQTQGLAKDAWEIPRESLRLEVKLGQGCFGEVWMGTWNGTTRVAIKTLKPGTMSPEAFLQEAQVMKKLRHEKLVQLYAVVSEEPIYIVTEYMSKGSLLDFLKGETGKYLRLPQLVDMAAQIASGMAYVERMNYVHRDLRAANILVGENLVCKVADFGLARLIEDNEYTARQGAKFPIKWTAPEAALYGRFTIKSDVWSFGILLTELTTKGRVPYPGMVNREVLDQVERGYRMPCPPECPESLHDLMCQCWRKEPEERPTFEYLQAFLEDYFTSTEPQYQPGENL
Transient receptor potential cation channel subfamily M member 6 (Homo sapiens), sequence (Q9BX84 whole entry): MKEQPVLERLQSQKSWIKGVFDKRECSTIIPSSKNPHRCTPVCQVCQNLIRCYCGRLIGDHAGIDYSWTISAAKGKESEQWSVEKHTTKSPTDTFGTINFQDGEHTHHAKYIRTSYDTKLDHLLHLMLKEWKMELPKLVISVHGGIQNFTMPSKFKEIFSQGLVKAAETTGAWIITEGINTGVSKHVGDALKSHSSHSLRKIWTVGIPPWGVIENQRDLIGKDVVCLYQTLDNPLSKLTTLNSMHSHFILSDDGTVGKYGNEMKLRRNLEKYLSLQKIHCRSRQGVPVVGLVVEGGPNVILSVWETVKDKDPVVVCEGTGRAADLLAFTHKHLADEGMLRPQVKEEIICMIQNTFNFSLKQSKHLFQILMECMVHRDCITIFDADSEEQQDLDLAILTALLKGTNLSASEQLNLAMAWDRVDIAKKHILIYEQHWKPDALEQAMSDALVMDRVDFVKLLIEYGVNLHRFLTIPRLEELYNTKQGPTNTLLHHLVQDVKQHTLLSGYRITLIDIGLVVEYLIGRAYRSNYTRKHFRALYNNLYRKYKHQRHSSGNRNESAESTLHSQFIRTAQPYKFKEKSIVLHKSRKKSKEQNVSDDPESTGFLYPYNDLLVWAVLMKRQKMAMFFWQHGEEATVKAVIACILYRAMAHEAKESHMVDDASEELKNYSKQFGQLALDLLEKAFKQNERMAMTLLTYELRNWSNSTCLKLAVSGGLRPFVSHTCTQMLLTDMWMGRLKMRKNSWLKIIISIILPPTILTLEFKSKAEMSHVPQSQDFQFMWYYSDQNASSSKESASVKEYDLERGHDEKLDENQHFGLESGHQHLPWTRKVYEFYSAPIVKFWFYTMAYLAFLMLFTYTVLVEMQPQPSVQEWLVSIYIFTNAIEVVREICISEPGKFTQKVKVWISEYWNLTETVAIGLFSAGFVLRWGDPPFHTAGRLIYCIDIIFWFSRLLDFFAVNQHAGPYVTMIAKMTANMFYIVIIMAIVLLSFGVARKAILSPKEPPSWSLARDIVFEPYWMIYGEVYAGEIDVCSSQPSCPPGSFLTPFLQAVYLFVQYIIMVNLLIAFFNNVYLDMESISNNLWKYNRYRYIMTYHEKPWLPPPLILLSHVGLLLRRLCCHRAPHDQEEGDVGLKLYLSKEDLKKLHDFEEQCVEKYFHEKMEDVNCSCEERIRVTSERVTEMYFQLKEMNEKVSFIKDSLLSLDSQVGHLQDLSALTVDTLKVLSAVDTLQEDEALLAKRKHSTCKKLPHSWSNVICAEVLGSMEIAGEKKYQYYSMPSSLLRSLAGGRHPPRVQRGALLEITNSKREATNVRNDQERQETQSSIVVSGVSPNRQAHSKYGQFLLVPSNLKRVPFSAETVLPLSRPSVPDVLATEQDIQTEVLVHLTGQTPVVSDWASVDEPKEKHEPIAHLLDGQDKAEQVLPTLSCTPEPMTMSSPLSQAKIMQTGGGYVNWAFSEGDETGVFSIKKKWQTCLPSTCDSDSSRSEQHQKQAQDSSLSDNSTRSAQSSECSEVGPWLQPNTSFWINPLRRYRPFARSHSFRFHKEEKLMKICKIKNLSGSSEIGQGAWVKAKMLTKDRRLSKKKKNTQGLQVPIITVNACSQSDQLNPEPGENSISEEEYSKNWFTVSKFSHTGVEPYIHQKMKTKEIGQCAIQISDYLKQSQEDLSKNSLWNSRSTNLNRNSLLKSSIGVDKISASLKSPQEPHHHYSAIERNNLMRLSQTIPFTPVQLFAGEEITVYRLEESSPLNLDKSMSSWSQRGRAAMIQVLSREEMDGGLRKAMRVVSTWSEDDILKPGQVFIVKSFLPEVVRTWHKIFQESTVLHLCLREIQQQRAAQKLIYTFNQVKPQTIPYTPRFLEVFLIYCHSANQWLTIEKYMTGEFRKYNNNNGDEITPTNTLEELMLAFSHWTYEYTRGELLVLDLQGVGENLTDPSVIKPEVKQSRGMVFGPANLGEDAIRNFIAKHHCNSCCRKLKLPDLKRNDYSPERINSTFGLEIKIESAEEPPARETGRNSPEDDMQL

`Cc1cc([C@@H](C)Nc2ccccc2C(=O)O)c2nc(N3CCOCC3)cc(=O)n2c1` [AZD-6482] showed a % of control in test [1] of 100%.

In test [2], `CN(C)C/C=C/C(=O)Nc1ccc(C(=O)N2CCCC(Nc3ncc(Cl)c(-c4c[nH]c5ccccc45)n3)C2)cc1` (configuration not stated) showed a % of control of 100%.

In test [3], `CCN(CC)CCCCNc1ncc2cc(-c3cc(OC)cc(OC)c3)c(NC(=O)NC(C)(C)C)nc2n1` yielded a % of control of 100%.

For the compound `Cc1cc(F)c(C(=O)Nc2cccc(-c3nncn3C(C)C)n2)cc1-n1cnc(C2CC2)c1`, the % of control in test [4] was 100%.

As to `C=CC(=O)Nc1cc(-n2c(=O)ccc3cnc4ccc(-c5ccc(NS(C)(=O)=O)cc5)cc4c32)ccc1C`, the % of control in test [5] (at 1 µM) was determined as 83%; in test [5] (at 10 µM), 78%.

The compound `N#Cc1cccc(-c2c[nH]c3ncnc(N4CCOCC4)c23)c1` gave a % of inhibition on Focal adhesion kinase 1 of 11%.

For the origin of these results see ChEMBL document CHEMBL5465560, “Selectivity Literature for EUbOPEN Chemogenomic Library” (2024).
